From PMC9369610, “Pro-Apoptotic and Pro-Autophagic Properties of Cardenolides from Aerial Parts of Pergularia tomentosa” (Molecules, 2022)

Legend:
Format in all cases: cell-based, human
[1] = system: HepG2 cells; test: BrdU incorporation (proliferation) assay; conditions: HepG2, 1 μM, 24 h
Description: Cell proliferation was analysed by a BrdU (Roche Diagnostics SpA, Monza, Italy) incorporation assay, as previously described. Briefly, HepG2 cells, seeded at adensity of 3 × 10^3/cm^2 on round glass cover slips, were treated for 24 h with P. tomentosa compounds at 1 μM. Then, BrdU was added to cell medium (final concentration, 100 μM) for 1 h. Cells were fixed (in 3% paraformaldehyde, 10 min), permeabilised (in 0.2% Triton X-100, 5 min) and treated with HCl 1.5 N (5 min). Finally, cover slips were incubated with a monoclonal antibody against BrdU (Sigma-Aldrich, Milan, Italy), 1:100, and with a TRITC-conjugated secondary antibody, 1:100. After staining with Hoechst, cover slips were mounted with Mowiol (Sigma, Milan, Italy). […] Images were acquired with Axiocam MRc5 and processed with ImageJ Launcher. The number of cells into S-phase was expressed as the ratio between the number of cells incorporating BrdU and the total number of cells.

[2] = system: HepG2 cells; test: Scratch-wound-healing assay; conditions: HepG2, 1 μM, 24, 48 and 72 h
Description: Cells were seeded at a density of 5 × 10^4 cells/well in 24-well plates and allowed to grow for 72 h, reaching confluence. Mitomycin C (10 μg/mL) was added to inhibit proliferation, and then a sterile 2–10 μL pipette tip was used to perform a vertical scratch in the monolayer of each well. Detached cells were removed by washing with phosphate-buffered saline. Then, 300 μL of fresh medium containing P. tomentosa compounds (1 μM) or vehicle was added to each well and incubated for 72 h. Images of migrating cells were taken at 0, 24, 48 and 72 h, by using an Olympus CKX41 fluorescent microscope (Olympus Italia srl, Segrate, Italy) and elaborated by the ImageJ software. For each scratch, wound width was calculated as the average distance between the edges in four different sites. Then, reductions in wound wights at 24, 48 and 72 h were expressed as % of the width at time zero.

[3] = system: LC3 in HepG2 cells; test: Western blot of LC3 (LC3-I and LC3-II); conditions: HepG2, 1 μM, 24 h
Description: To analyse the protein levels of p53, caspase-3, GRP78, LC3 and p62, HepG2 cells were treated with P. tomentosa compounds (1 or 2 μM) or with DMSO for the indicated times; then, Western blot analyses were performed. Briefly, cells were lysed in RIPA buffer (20 mM Tris-HCl, pH 7.5, 150 mM NaCl, 1 mM EDTA, 1 mM dithiothreitol, 0.1% sodium dodecyl sulphate, 1% triton X-100, 1 mM orthovanadate, and a cocktail of inhibitors (Sigma-Aldrich, Milan, Italy)). After separation on a sodium dodecyl sulphate-polyacrylamide gel electrophoresis and transfer to a poly-vinylidene fluoride membrane (Euroclone, Milan, Italy), the following primary antibodies were used, at a dilution of 1:1000 in tris-buffered saline containing 1% non-fat dry milk, overnight at 4 °C: mouse anti-p53 antibody, mouse anti-MAP LC3 β antibody, mouse anti-p62 antibody (DBA, Milan, Italy), mouse anti-GRP78 antibody, and mouse anti-caspase 3 antibody (Thermo Fisher Scientific, Milan, Italy). For normalisation, a mouse anti-GAPDH antibody (Microtech, Naples, Italy) was used.

With `C[C@@H]1C[C@@H](O)[C@]2(O)O[C@@H]3C[C@@]4(C=O)[C@@H](CC[C@@H]5[C@@H]4CC[C@]4(C)[C@@H](C6=CC(=O)OC6)CC[C@]54O)C[C@H]3O[C@@H]2O1` [Compound 5, calactin] the “effect on BrdU incorporation / cell cycle progression” value [1] was “significantly affected cell cycle progression”, the “effect on wound closure” value [2] was “interfered with the wound closure after 48 and 72 h” and the LC3-I level [3] was “reduction in the LC3-I form”. For the same compound, the LC3-II level [3] was “more marked”.
